Measurements from the NIST ThermoML archive (doi:10.1016/j.jct.2019.02.004).
± gives the expanded uncertainty stated by the source.

What was measured:
[1] = Crystal; DTA
[2] = Molar enthalpy of transition or fusion; settings: Crystal; DSC

SMILES: CC(=O)Nc1ccc(Cl)cc1 [N(4-chlorophenyl)ethanamide]
- Normal melting temperature [1]: 175.7 ± 1.1 °C
- Molar enthalpy of transition or fusion [2]: 27.1 ± 0.98 kJ/mol
